Measured values as given in ChEMBL document CHEMBL1287699, “N,N-Bis-(8-hydroxyquinoline-5-yl methyl)-benzyl substituted amines (HQNBA): peroxisome proliferator-activated receptor (PPAR-γ) agonists with neuroprotective properties” (Bioorg Med Chem Lett, 2010).
Calls of active or inactive are those of the source. No cut-off for these calls is given here.

Legend:
[1] = system: HT-22; assay: Inhibition of glutamate-induced decrease in GSH level in mouse HT22 cells at 1 uM after 24 hrs; format: functional, cell-based
[2] = system: HT-22; assay: Neuroprotective activity in mouse HT22 cells assessed as protection against glutamate-induced toxicity at 1 uM after 24 hrs by MTT assay in presence of GW-9662; format: functional, cell-based
[3] = Cytotoxicity against mouse hippocampal HT22 cells at 1 uM after 24 hrs by MTT assay; format: cell-based, Hippocampus; details: ht-22, 24 h
[4] = system: HT-22; assay: Neuroprotective activity in mouse HT22 cells assessed as protection against glutamate-induced toxicity after 24 hrs by MTT assay; format: functional, cell-based; details: HT-22, 24 h
[5] = system: HT-22; assay: Neuroprotective activity in mouse HT22 cells assessed as protection against glutamate-induced toxicity at 0.5 to 1 uM after 24 hrs by MTT assay relative to control; format: functional

Compound	Activity [1]	Activity [2]	Activity [3] [%]	EC50 [4] [nM]	%max [5] [%]
Cc1ccc(CN(Cc2ccc(O)c3ncccc23)Cc2ccc(O)c3ncccc23)cc1	Active	inactive	39.4	125	100
Oc1ccc(CN(Cc2cccs2)Cc2ccc(O)c3ncccc23)c2cccnc12	Active	inactive	34	383	97
Cc1c(C)c2c(c(C)c1O)CCC(C)(COc1ccc(CC3SC(=O)NC3=O)cc1)O2 (stereo not drawn)	inactive				
O=C(Nc1ccccc1)c1cc([N+](=O)[O-])ccc1Cl		inactive			
COc1cc(/C=C/c2cc(/C=C/c3ccc(O)c(OC)c3)n(-c3ccccc3)n2)ccc1O		Active			
Oc1ccc(CN(Cc2cccc(C(F)(F)F)c2)Cc2ccc(O)c3ncccc23)c2cccnc12	Active	inactive	40.7	168	99
Oc1ccc(CN(Cc2ccc(C(F)(F)F)cc2)Cc2ccc(O)c3ncccc23)c2cccnc12	Active	inactive	33.7	621	100
